Reference: US11484501B2, “Mechanochemical activated dry amorphisation by milling equilibrium between ap mesoporous silica” (priority 2015, dated 2022)

Experiment: Amorphonisation of co-milled drug by X-ray diffraction and DSC
Type: physicochemical
Conditions: vibration ball mill
Experimental: Amorphonisation of co-milled IBU was confirmed by DSC and X-RD study. Drug release studies were conducted by and using USP Dissolution apparatus II and media (e.g., acetate buffer) of pH 4.5. Formation of hydrogen bond between silanol groups of SYLOID® silica and functional groups of IBU were believe to be the key to drug amorphonisation in the co-milling process. To confirm the IBU amorphonisation, X-ray diffraction study (XRD) was conducted. […] Additionally, DSC studies were conducted to understand the amorphonisation and possible interaction between silanol groups of SYLOID® silica and IBU. DSC thermograms, shown in FIGS. 5A-5B, confirmed both change in enthalpy and symmetry of peak shape.

- amorphonisation of the crystalline drug into an amorphous state by (co-)milling: does not result in an amorphous form
Compound: CC(C)Cc1ccc(C(C)C(=O)O)cc1 (stereo not shown) [IBU, ibuprofen]
